Reference: BindingDB's records for doi:10.1021/cc9800374 (Smithkline Beecham Pharmaceuticals, 1999)
pKi: −log10 of the molar value.

What was measured:
Cathepsin K = molecular target: T1, Cathepsin K (Homo sapiens, UniProt P43235); assay: Inhibition Assay; conditions: pH 5.5
T1 sequence (P43235 whole entry): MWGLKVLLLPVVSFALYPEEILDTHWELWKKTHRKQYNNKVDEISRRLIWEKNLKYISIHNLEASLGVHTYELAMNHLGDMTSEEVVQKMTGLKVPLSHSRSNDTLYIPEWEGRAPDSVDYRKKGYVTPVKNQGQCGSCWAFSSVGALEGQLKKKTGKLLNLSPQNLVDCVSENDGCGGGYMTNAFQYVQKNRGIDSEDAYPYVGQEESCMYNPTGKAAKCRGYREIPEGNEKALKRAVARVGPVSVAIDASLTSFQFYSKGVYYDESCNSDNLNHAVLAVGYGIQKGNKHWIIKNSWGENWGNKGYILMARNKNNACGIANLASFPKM
Experimental: (§1) Inhibitors were assayed against human liver Cathepsin L and B. Inhibitors were also evaluated for inhibition against purified recombinant Cathepsin K.

Cathepsin L = Cathepsin L (Homo sapiens, UniProt Q6LAF7); assay: Inhibition Assay; conditions: pH 5.5
Chain of Cathepsin L (Q6LAF7 whole entry): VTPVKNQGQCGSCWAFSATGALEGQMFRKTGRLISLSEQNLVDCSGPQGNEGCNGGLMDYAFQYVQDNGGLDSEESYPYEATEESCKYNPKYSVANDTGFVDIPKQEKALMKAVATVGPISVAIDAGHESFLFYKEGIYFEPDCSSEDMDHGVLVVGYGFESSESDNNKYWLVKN
Experimental: as §1

pKi (Cathepsin K) | pKi (Cathepsin L) | SMILES
< 6.00 | < 6.00 | COc1ccc(C(=O)N[C@H](C(=O)NC(C)C(=O)CNC(=O)Cc2cccc(-c3ccccn3)c2)C(C)C)cc1OC (stereo partly specified) [Cathepsin Inhibitor, Column 3 Row 3]
8.77 | 6.89 | CC(C)C[C@H](NC(=O)c1ccc2ccccc2n1)C(=O)NC(C)C(=O)CNC(=O)Cc1cccc(-c2ccccn2)c1 (stereo partly specified) [Cathepsin Inhibitor, Column 5 Row 1]
6.77 | 6.96 | CC(NC(=O)[C@H](Cc1ccccc1)NC(=O)c1ccc2ccccc2n1)C(=O)CNC(=O)Cc1cccc(-c2ccccn2)c1 (stereo partly specified) [Cathepsin Inhibitor, Column 5 Row 2]
8.08 | 6.64 | CC(C)C[C@H](NC(=O)c1ccc(C(F)(F)F)cc1)C(=O)NC(C)C(=O)CNC(=O)Cc1cccc(-c2ccccn2)c1 (stereo partly specified) [Cathepsin Inhibitor, Column 2 Row 1]
6.52 | < 6.00 | CC(NC(=O)[C@@H](NC(=O)c1cc2ccccc2s1)C(C)C)C(=O)CNC(=O)Cc1cccc(-c2ccccn2)c1 (stereo partly specified) [Cathepsin Inhibitor, Column 6 Row 3]
6.70 | < 6.00 | CC(=O)N[C@@H](CC(C)C)C(=O)NC(C)C(=O)CNC(=O)Cc1cccc(-c2ccccn2)c1 (stereo partly specified) [Cathepsin Inhibitor, Column 1 Row 1]
7.60 | 7.28 | COc1ccc(C(=O)N[C@@H](Cc2ccccc2)C(=O)NC(C)C(=O)CNC(=O)Cc2cccc(-c3ccccn3)c2)cc1OC (stereo partly specified) [Cathepsin Inhibitor, Column 3 Row 2]

More lines, now with the values behind:

SMILES | pKi (Cathepsin K) | pKi (Cathepsin L)
CC(NC(=O)[C@H](Cc1ccccc1)NC(=O)c1ccc2ncccc2c1)C(=O)CNC(=O)Cc1cccc(-c2ccccn2)c1 (stereo partly specified) [Cathepsin Inhibitor, Column 4 Row 2] | 6.77 | 7.44
CC(NC(=O)[C@H](Cc1ccccc1)NC(=O)c1ccc(C(F)(F)F)cc1)C(=O)CNC(=O)Cc1cccc(-c2ccccn2)c1 (stereo partly specified) [Cathepsin Inhibitor, Column 2 Row 2] | 7.05 | 6.92
CC(NC(=O)[C@@H](NC(=O)c1ccc(C(F)(F)F)cc1)C(C)C)C(=O)CNC(=O)Cc1cccc(-c2ccccn2)c1 (stereo partly specified) [Cathepsin Inhibitor, Column 2 Row 3] | 6.37 | < 6.00
CC(NC(=O)[C@H](Cc1ccccc1)NC(=O)c1cc2ccccc2s1)C(=O)CNC(=O)Cc1cccc(-c2ccccn2)c1 (stereo partly specified) [Cathepsin Inhibitor, Column 6 Row 2] | 7.80 | 7.74
CC(=O)N[C@@H](Cc1ccccc1)C(=O)NC(C)C(=O)CNC(=O)Cc1cccc(-c2ccccn2)c1 (stereo partly specified) [Cathepsin Inhibitor, Column 1 Row 2] | < 6.00 | < 6.00
CC(C)C[C@H](NC(=O)c1cc2ccccc2s1)C(=O)NC(C)C(=O)CNC(=O)Cc1cccc(-c2ccccn2)c1 (stereo partly specified) [Cathepsin Inhibitor, Column 6 Row 1] | 8.89 | 7.05
CC(NC(=O)[C@@H](NC(=O)c1ccc2ccccc2n1)C(C)C)C(=O)CNC(=O)Cc1cccc(-c2ccccn2)c1 (stereo partly specified) [Cathepsin Inhibitor, Column 5 Row 3] | 6.08 | < 6.00
COc1ccc(C(=O)N[C@@H](CC(C)C)C(=O)NC(C)C(=O)CNC(=O)Cc2cccc(-c3ccccn3)c2)cc1OC (stereo partly specified) [Cathepsin Inhibitor, Column 3 Row 1] | 8.13 | 6.82
CC(C)C[C@H](NC(=O)c1ccc2ncccc2c1)C(=O)NC(C)C(=O)CNC(=O)Cc1cccc(-c2ccccn2)c1 (stereo partly specified) [Cathepsin Inhibitor, Column 4 Row 1] | 7.74 | 6.89
CC(=O)N[C@H](C(=O)NC(C)C(=O)CNC(=O)Cc1cccc(-c2ccccn2)c1)C(C)C (stereo partly specified) [Cathepsin Inhibitor, Column 1 Row 3] | < 6.00 | < 6.00
CC(NC(=O)[C@@H](NC(=O)c1ccc2ncccc2c1)C(C)C)C(=O)CNC(=O)Cc1cccc(-c2ccccn2)c1 (stereo partly specified) [Cathepsin Inhibitor, Column 4 Row 3] | < 6.00 | < 6.00
